Test system: HIV-1
Assay: HOS HIV-1 infectivity assay
Format: cell-based
Conditions: Human immunodeficiency virus 1, BAL / IIIB, HOS cells expressing hCXCR4/hCCR5/hCD4/pHIV-LTR-luciferase, virus strain (Ba-L or IIIB) not given, read-out: Activity Level
Description: Compounds were profiled against two HIV-1 viruses, the M-tropic (CCR5 utilizing) Ba-L strain and the T-tropic (CXCR4 utilizing) IIIB strain. Both viruses were propagated in human peripheral blood lymphocytes. Compounds were tested for there ability to block infection of the HOS cell line (expressing hCXCR4/hCCR5/hCD4/pHIV-LTR-luciferase) by either HIV-1 Ba-L or HIV-1 IIIB. Compound cytotoxicity was also examined in the absence of virus addition.
HOS cells (expressing hCXCR4/hCCR5/hCD4/pHIV-LTR-luciferase) were harvested and diluted in Dulbeccos modified Eagles media supplemented with 2% FCS and non-essential amino acid to a concentration of 60,000 cells/ml. The cells were plated into 96-well plates (100 ul per well) and the plates were placed in a tissue culture incubator (37° C.; 5% CO2/95% air) for a period of 24h.
Subsequently, 50 ul of the desired drug solution (4 times the final concentration) was added to each well and the plates were returned to the tissue culture incubator (37° C.; 5% CO2/95% air) for 1h. Following this incubation 50 ul of diluted virus was added to each well (approximately 2 million RLU per well of virus). The plates were returned to the tissue culture incubator (37° C.; 5% CO2/95% air) and were incubated for a further 96h.
Following this incubation the endpoint for the virally infected cultures was quantified following addition of Steady-Glo Luciferase assay system reagent (Promega, Madison, Wis.). Cell viability or non-infected cultures was measured using a CellTiter-Glo luminescent cell viability assay system (Promega, Madison, Wis.). All luminescent readouts are performed on a Topcount luminescence detector (Packard, Meridien, Conn.).

SMILES	IC50 [nM]
CN(C)Cc1c(CN(C)[C@H]2CCCc3cccnc32)nc2cccc(N3CCN(C)CC3)n12 [Example 10, (8S)—N-{[3-[(Dimethylamino)methyl]-5-(4-methyl-1-piperazinyl)imidazo[1,2-a]pyridin-2-yl]methyl}-N-methyl-5,6,7,8-tetrahydro-8-quinolinamine]	< 100
CCN(CC)Cc1c(CN(C)[C@H]2CCCc3cccnc32)nc2cccc(N3CCN(C)CC3)n12 [Example 11, (8S)—N-{[3-[(Diethylamino)methyl]-5-(4-methyl-1-piperazinyl)imidazo[1,2-a]pyridin-2-yl]methyl}-N-methyl-5,6,7,8-tetrahydro-8-quinolinamine]	< 100
CN1CCN(c2cccc3nc(CN(C)[C@H]4CCCc5cccnc54)c(CN4CCCC4)n23)CC1 [Example 12, (8S)—N-Methyl-N-{[5-(4-methyl-1-piperazinyl)-3-(1-pyrrolidinylmethyl)imidazo[1,2-a]pyridin-2-yl]methyl}-5,6,7,8-tetrahydro-8-quinolinamine]	< 100
CN1CCN(c2cccc3nc(CN(C)[C@H]4CCCc5cccnc54)c(CN(CCO)CCO)n23)CC1 [Example 13, 2,2′-({[5-(4-Methyl-1-piperazinyl)-2-({methyl[(8S)-5,6,7,8-tetrahydro-8-quinolinyl]amino}methyl)imidazo[1,2-a]pyridin-3-yl]methyl}imino)diethanol]	< 100
CCN(CCO)Cc1c(CN(C)[C@H]2CCCc3cccnc32)nc2cccc(N3CCN(C)CC3)n12 [Example 14, 2-(Ethyl{[5-(4-methyl-1-piperazinyl)-2-({methyl[(8S)-5,6,7,8-tetrahydro-8-quinolinyl]amino}methyl)imidazo[1,2-a]pyridin-3-yl]methyl}amino)ethanol]	< 100
CN1CCN(c2cccc3nc(CN(C)[C@H]4CCCc5cccnc54)c(CN4CCC(O)C4)n23)CC1 (stereo partly drawn) [Example 15, 1-{[5-(4-Methyl-1-piperazinyl)-2-({methyl[(8S)-5,6,7,8-tetrahydro-8-quinolinyl]amino}methyl)imidazo[1,2-a]pyridin-3-yl]methyl}-3-pyrrolidinol]	< 100
CN1CCN(c2cccc3nc(CN(C)[C@H]4CCCc5cccnc54)c(CN4CCOCC4)n23)CC1 [Example 16, (8S)—N-Methyl-N-{[5-(4-methyl-1-piperazinyl)-3-(4-morpholinylmethyl)imidazo[1,2-a]pyridin-2-yl]methyl}-5,6,7,8-tetrahydro-8-quinolinamine]	< 100
CNCc1c(CN(C)[C@H]2CCCc3cccnc32)nc2cccc(N3CCN(C)CC3)n12 [Example 19, (8S)—N-Methyl-N-{[3-[(methylamino)methyl]-5-(4-methyl-1-piperazinyl)imidazo[1,2-a]pyridin-2-yl]methyl}-5,6,7,8-tetrahydro-8-quinolinamine]	< 100
CCNCc1c(CN(C)[C@H]2CCCc3cccnc32)nc2cccc(N3CCN(C)CC3)n12 [Example 20, (8S)—N-{[3-[(Ethylamino)methyl]-5-(4-methyl-1-piperazinyl)imidazo[1,2-a]pyridin-2-yl]methyl}-N-methyl-5,6,7,8-tetrahydro-8-quinolinamine]	< 100
CN1CCN(Cc2c(CN(C)[C@H]3CCCc4cccnc43)nc3cccc(N4CCN(C)CC4)n23)CC1 [Example 21, (8S)—N-Methyl-N-({5-(4-methyl-1-piperazinyl)-3-[(4-methyl-1-piperazinyl)methyl]imidazo[1,2-a]pyridin-2-yl}methyl)-5,6,7,8-tetrahydro-8-quinolinamine]	< 100
CN1CCN(c2cccc3nc(CN(C)[C@H]4CCCc5cccnc54)c(CN4CCCCC4)n23)CC1 [Example 22, (8S)—N-Methyl-N-{[5-(4-methyl-1-piperazinyl)-3-(1-piperidinylmethyl)imidazo[1,2-a]pyridin-2-yl]methyl}-5,6,7,8-tetrahydro-8-quinolinamine]	< 100
CC(C)NCc1c(CN(C)[C@H]2CCCc3cccnc32)nc2cccc(N3CCN(C)CC3)n12 [Example 23, (8S)—N-Methyl-N-{[3-{[(1-methylethyl)amino]methyl}-5-(4-methyl-1-piperazinyl)imidazo[1,2-a]pyridin-2-yl]methyl}-5,6,7,8-tetrahydro-8-quinolinamine]	< 100
CN1CCN(c2cccc3nc(CN(C)[C@H]4CCCc5cccnc54)c(CN)n23)CC1 [Example 24, (8S)—N-{[3-(Aminomethyl)-5-(4-methyl-1-piperazinyl)imidazo[1,2-a]pyridin-2-yl]methyl}-N-methyl-5,6,7,8-tetrahydro-8-quinolinamine]	< 100
CC(=O)NCc1c(CN(C)[C@H]2CCCc3cccnc32)nc2cccc(N3CCN(C)CC3)n12 [Example 25, N-{[5-(4-Methyl-1-piperazinyl)-2-({methyl[(8S)-5,6,7,8-tetrahydro-8-quinolinyl]amino}methyl)imidazo[1,2-a]pyridin-3-yl]methyl}acetamide]	< 100
CCC(=O)NCc1c(CN(C)[C@H]2CCCc3cccnc32)nc2cccc(N3CCN(C)CC3)n12 [Example 26, N-{[5-(4-Methyl-1-piperazinyl)-2-({methyl[(8S)-5,6,7,8-tetrahydro-8-quinolinyl]amino}methyl)imidazo[1,2-a]pyridin-3-yl]methyl}propanamide]	< 100
CC(C)C(=O)NCc1c(CN(C)[C@H]2CCCc3cccnc32)nc2cccc(N3CCN(C)CC3)n12 [Example 27, 2-Methyl-N-{[5-(4-methyl-1-piperazinyl)-2-({methyl[(8S)-5,6,7,8-tetrahydro-8-quinolinyl]amino}methyl)imidazo[1,2-a]pyridine-3-yl]methyl}propanamide]	< 100
CCC(C)C(=O)NCc1c(CN(C)[C@H]2CCCc3cccnc32)nc2cccc(N3CCN(C)CC3)n12 (stereo partly drawn) [Example 28, 2-Methyl-N-{[5-(4-methyl-1-piperazinyl)-2-({methyl[(8S)-5,6,7,8-tetrahydro-8-quinolinyl]amino}methyl)imidazo[1,2-a]pyridin-3-yl]methyl}butanamide]	< 100
CN1CCN(c2cccc3nc(CN(C)[C@H]4CCCc5cccnc54)c(CNC(=O)c4ccccc4)n23)CC1 [Example 29, 2 N-{[5-(4-Methyl-1-piperazinyl)-2-({methyl[(8S)-5,6,7,8-tetrahydro-8-quinolinyl]amino}methyl)imidazo[1,2-a]pyridin-3-yl]methyl}benzamide]	< 100
CN1CCN(c2cccc3nc(CN(C)[C@H]4CCCc5cccnc54)c(CNC(=O)Cc4ccccc4)n23)CC1 [Example 30, N-{[5-(4-Methyl-1-piperazinyl)-2-({methyl[(8S)-5,6,7,8-tetrahydro-8-quinolinyl]amino}methyl)imidazo[1,2-a]pyridin-3-yl]methyl}-2-phenylacetamide]	< 100
COC(=O)NCc1c(CN(C)[C@H]2CCCc3cccnc32)nc2cccc(N3CCN(C)CC3)n12 [Example 31, Methyl {[5-(4-methyl-1-piperazinyl)-2-({methyl[(8S)-5,6,7,8-tetrahydro-8-quinolinyl]amino}methyl)imidazo[1,2-a]pyridin-3-yl]methyl}carbamate]	< 100
CCOC(=O)NCc1c(CN(C)[C@H]2CCCc3cccnc32)nc2cccc(N3CCN(C)CC3)n12 [Example 32, Ethyl {[5-(4-methyl-1-piperazinyl)-2-({methyl[(8S)-5,6,7,8-tetrahydro-8-quinolinyl]amino}methyl)imidazo[1,2-a]pyridin-3-yl]methyl}carbamate]	< 100
CN1CCN(c2cccc3nc(CN(C)[C@H]4CCCc5cccnc54)c(CNC(=O)OCc4ccccc4)n23)CC1 [Example 33, Phenylmethyl {[5-(4-methyl-1-piperazinyl)-2-({methyl[(8S)-5,6,7,8-tetrahydro-8-quinolinyl]amino}methyl)imidazor[1,2-a]pyridin-3-yl]methyl}carbamate]	< 100
CN1CCN(c2cccc3nc(CN(C)[C@H]4CCCc5cccnc54)c(CNS(C)(=O)=O)n23)CC1 [Example 34, N-{[5-(4-Methyl-1-piperazinyl)-2-({methyl[(8S)-5,6,7,8-tetrahydro-8-quinolinyl]amino}methyl)imidazo[1,2-a]pyridine-3-yl]methyl}methanesulfonamide]	< 100
CCS(=O)(=O)NCc1c(CN(C)[C@H]2CCCc3cccnc32)nc2cccc(N3CCN(C)CC3)n12 [Example 35, N-{[5-(4-Methyl-1-piperazinyl)-2-({methyl[(8S)-5,6,7,8-tetrahydro-8-quinolinyl]amino}methyl)imidazo[1,2-a]pyridin-3-yl]methyl}ethanesulfonamide]	< 100
CC(C)S(=O)(=O)NCc1c(CN(C)[C@H]2CCCc3cccnc32)nc2cccc(N3CCN(C)CC3)n12 [Example 36, N-{[5-(4-Methyl-1-piperazinyl)-2-({methyl[(8S)-5,6,7,8-tetrahydro-8-quinolinyl]amino}methyl)imidazo[1,2-a]pyridin-3-yl]methyl}-2-propanesulfonamide]	< 100

Source: US20080234318A1, “Chemical Compounds” (priority 2005, published 2008)
